Experimental data reported in the NIST ThermoML archive (doi:10.1016/j.fluid.2014.06.010).
± gives the expanded uncertainty stated by the source.

Conditions: Liquid; Closed cell (Static) method

SMILES | Normal boiling temperature [°C]
CC(O)C(=O)O (configuration not stated) [2-hydroxypropanoic acid] | 125.1 ± 0.2
CC(=O)CC(C)C [4-methylpentan-2-one] | 119.2 ± 0.2
